Measured values as given in patent US9012433B2, “Substituted tetracycline compounds” (Paratek Pharmaceuticals, Inc., priority 2006, dated 2015).
In brackets after ≈: the same amount, converted by molar mass. Like-named read-outs stand apart in the source and are kept apart here.

Experiments:
in vitro = format: cell-based
Protocol: Mammalian cell cytotoxicity was assessed to evaluate potential in vivo risks associated with the tetracycline compounds of the invention. A soluble, non-toxic redox dye (“Resazurin”; Alamar Blue) was used to assess a tetracycline compound's effect on cellular metabolism. At the onset of the experiment, cultures of mammalian COS-1 or CHO cells were washed, trypsinized, and harvested. […] On the next day, serial dilutions of test drug were prepared under sterile conditions and transferred to cell plates. Plates were then incubated under the above conditions for 24 hours. Following the incubation period, the media/drug was aspirated, and 50 μL of resazurin was added. Plates were then incubated under the above conditions for 2 hours and then in the dark at room temperature for an additional 30 minutes. Fluorescence measurements were taken (excitation 535 nm, emission 590 nm) and toxic effects in treated versus control cells were compared based on the degree of fluorescence in each well.

[1] = tested on: S. pneumoniae 157E - Strep; test: Antibacterial MIC, CLSI broth microdilution; format: cell-based; settings: 35° C., 18-24 hours, lysed horse blood; for MIC: Streptococcus pneumoniae, 157ESTREP
Protocol: (§1) Grain (−) and gram (+) antibacterial minimum inhibitory concentration (MIC) values (μg/mL) were obtained using CLSI methodology for anti-bacterial susceptibility testing. On each day of testing, serial dilutions of compounds were prepared in microdilution plates using a Tecan robotic workstation. Mueller Hinton broth cultures of representative sensitive and resistant gram negative strains were grown or adjusted to match the turbidity of a 0.5 McFarland standard. 1:200 dilutions were made in an appropriate broth (cation supplemented Mueller Hinton broth) to allow a final inoculum of 1×10^5 cfu. Plates were incubated at 35° C. in ambient air for 18-24 hours, were read spectrophotometrically and checked manually for evidence of bacterial growth. The lowest dilution of compound that inhibited growth was recorded as the MIC. Lysed horse blood was used to supplement broth for testing S. pneumoniae. The MIC's for each compound were assessed against S. aureus, S. pneumoniae, P. acnes, E. coli and B. theta.

E. coli ATCC 25922 = test: Antibacterial MIC, CLSI broth microdilution; format: cell-based; settings: 35° C., 18-24 hours; for MIC: Escherichia coli, ATCC25922
Protocol: as §1

[2] = tested on: B. thetaiotaomicron ATCC 29741; test: Antibacterial MIC, CLSI broth microdilution; format: cell-based; settings: for MIC: Bacteroides thetaiotaomicron
Protocol: as §1

S. aureus RN450 [3] = test: Antibacterial MIC, CLSI broth microdilution; format: cell-based; settings: 35° C., 18-24 hours; for MIC: Staphylococcus aureus, RN450
Protocol: as §1

P. acnes ATCC 11827 = test: Antibacterial MIC, CLSI broth microdilution; format: cell-based; settings: 35° C., 18-24 hours; for MIC: Cutibacterium acnes, ATCC11827
Protocol: as §1

P. acnes ATCC 6919 = test: Antibacterial MIC, CLSI broth microdilution; format: cell-based; settings: 35° C., 18-24 hours; for MIC: Cutibacterium acnes, ATCC6919
Protocol: as §1

E. coli MG 1655 = test: Antibacterial MIC, CLSI broth microdilution; format: cell-based; settings: 35° C., 18-24 hours; for MIC: Escherichia coli, MG1655
Protocol: as §1

S. aureus RN450 [4] = test: In vivo anti-bacterial activity, S. aureus model; settings: mice, lethal IP S. aureus RN450, subcutaneous, 24 hours
Protocol: Groups of five mice were injected intraperitoneally with a lethal dose of S. aureus RN450 in a medium of mucin. Mice were evaluated at 24 hours to determine survival. […] In some instances, a dose response study was performed with the compound such that a PD50 (a dose of compound that protects 50% of the animals) could be calculated.

[5] = ATCC29741, 35° C., 18-24 hours, read-out: MIC B. thetaiotaomicron ATCC 29741

Compound | IC50 at 24 h (in vitro; African green monkey) [µg/mL] | IC50 at 24 h (in vitro; Chinese hamster) [µg/mL] | MIC [1] [µg/mL] | MIC (E. coli ATCC 25922) [µg/mL] | MIC [2, 5] [µg/mL] | MIC (S. aureus RN450 [3]) [µg/mL] | MIC (P. acnes ATCC 11827) [µg/mL] | MIC (P. acnes ATCC 6919) [µg/mL] | MIC (E. coli MG 1655) [µg/mL] | ED50 (S. aureus RN450 [4]; Staphylococcus aureus, sc, read-out: PD50 (dose that protects 50% of the animals)) [mg/kg] | MIC S. pneumoniae 157E - Strep [1] | MIC E. coli ATCC 25922 (E. coli ATCC 25922) | MIC B. thetaiotaomicron ATCC 29741 ([2]; 35° C., 18-24 hours) | MIC S. aureus RN450 (S. aureus RN450 [3]) | MIC P. acnes ATCC 11827 (P. acnes ATCC 11827) | MIC P. acnes ATCC 6919 (P. acnes ATCC 6919) | MIC E. coli MG 1655 (E. coli MG 1655) | PD50 (dose that protects 50% of the animals) (S. aureus RN450 [4]) [mg/kg] | MIC ([2]; ATCC29741, read-out: MIC B. thetaiotaomicron ATCC 29741) [µg/mL]
CC(C)ONCc1ccc(O)c2c1C[C@H]1C[C@H]3[C@H](N(C)C)C(O)=C(C(N)=O)C(=O)[C@@]3(O)C(O)=C1C2=O [DV, (4S,4aS,5aR,12aS-4-Dimethylamino-3,10,12,12a-tetrahydroxy-7-isopropoxyamino-methyl)-1,11-dioxo-1,4,4a,5,5a,6,11,12a-octahydro-naphthacene-2-carboxylic acid amide] | < 35 | < 35 | < 4 | 4 to 8 (≈ 7.98 to 16 µM) | 4 to 8 (≈ 7.98 to 16 µM) | < 4 | < 4 | < 4 | > 8 | 1.1 |  |  |  |  |  |  |  |  | 
CN(C)[C@H]1C(O)=C(C(N)=O)C(=O)[C@@]2(O)C(O)=C3C(=O)c4c(O)ccc(CNOCC(F)F)c4C[C@H]3C[C@@H]12 [DY] | > 75 | > 75 | 4 to 8 (≈ 7.64 to 15.3 µM) | > 8 | 4 to 8 (≈ 7.64 to 15.3 µM) | < 4 | < 4 | < 4 | > 8 |  |  |  |  |  |  |  |  |  | 
CCON(C)Cc1ccc(O)c2c1C[C@H]1C[C@H]3[C@H](N(C)C)C(O)=C(C(N)=O)C(=O)[C@@]3(O)C(O)=C1C2=O [AE] | > 75 | < 35 | < 4 | 4 to 8 (≈ 7.98 to 16 µM) | 4 to 8 (≈ 7.98 to 16 µM) | < 4 | < 4 | < 4 | > 8 |  |  |  |  |  |  |  |  |  | 
CCONCc1ccc2c(c1O)C(=O)C1=C(O)[C@]3(O)C(=O)C(C(N)=O)=C(O)[C@@H](N(C)C)[C@@H]3C[C@@H]1C2 [GM] | < 35 | < 35 | < 4 | > 8 | 4 to 8 (≈ 8.2 to 16.4 µM) | < 4 | 4 to 8 (≈ 8.2 to 16.4 µM) | < 4 | > 8 |  |  |  |  |  |  |  |  |  | 
CN(C)[C@@H]1C(O)=C(C(N)=O)C(=O)[C@@]2(O)C(O)=C3C(=O)c4c(O)ccc(CN5CCCO5)c4C[C@H]3C[C@@H]12 [U] | > 75 | 35 to 75 (≈ 70.1 to 150 µM) | < 4 | < 4 | 4 to 8 (≈ 8.01 to 16 µM) | < 4 | < 4 | < 4 | 4 to 8 (≈ 8.01 to 16 µM) |  |  |  |  |  |  |  |  |  | 
COC(=O)CONCc1ccc(O)c2c1C[C@H]1C[C@H]3[C@H](N(C)C)C(O)=C(C(N)=O)C(=O)[C@@]3(O)C(O)=C1C2=O [ED] | < 35 | < 35 | < 4 | 4 to 8 (≈ 7.53 to 15.1 µM) | < 4 | < 4 | < 4 | < 4 | 4 to 8 (≈ 7.53 to 15.1 µM) |  |  |  |  |  |  |  |  |  | 
(4S,4aS,5aR,12aS)-4-Dimethylamino-3,12,12a-trihydroxy-1,11-dioxo-7-pyrazin-2-yl-1,4,4a,5,5a,6,11,12a-octahydro-naphthacene-2-carboxylic acid amide [W] |  |  |  |  |  |  |  |  |  |  | *** (Good antibacterial activity (e.g., less than about 4 μg/mL)) | * (weak or no antibacterial activity (greater than about 8 μg/mL)) | * (weak or no antibacterial activity (greater than about 8 μg/mL)) | *** (Good antibacterial activity (e.g., less than about 4 μg/mL)) | *** (Good antibacterial activity (e.g., less than about 4 μg/mL)) | *** (Good antibacterial activity (e.g., less than about 4 μg/mL)) | * (weak or no antibacterial activity (greater than about 8 μg/mL)) | 1.08 | 
CC(=O)c1cccc2c1C[C@H]1C[C@H]3[C@@H](N(C)C)C(O)=C(C(N)=O)C(=O)[C@@]3(O)C(O)=C1C2=O [D] | > 75 | > 75 | < 4 | > 8 | > 8 | < 4 | 4 to 8 (≈ 9.08 to 18.2 µM) | 4 to 8 (≈ 9.08 to 18.2 µM) | > 8 |  |  |  |  |  |  |  |  |  | 
CC1CCN(Cc2cccc3c2C[C@H]2C[C@H]4[C@@H](N(C)C)C(O)=C(C(N)=O)C(=O)[C@@]4(O)C(O)=C2C3=O)CC1 [G] | > 75 | > 75 | < 4 | 4 to 8 (≈ 7.85 to 15.7 µM) | > 8 | < 4 | 4 to 8 (≈ 7.85 to 15.7 µM) | 4 to 8 (≈ 7.85 to 15.7 µM) | > 8 |  |  |  |  |  |  |  |  |  | 
CN(C)[C@@H]1C(O)=C(C(N)=O)C(=O)[C@@]2(O)C(O)=C3C(=O)c4c(O)ccc(-c5cnoc5)c4C[C@H]3C[C@@H]12 [K] | < 35 | < 35 | < 4 | < 4 | < 4 | < 4 | < 4 | < 4 | < 4 |  |  |  |  |  |  |  |  |  | 
CN(C)[C@H]1C(O)=C(C(N)=O)C(=O)[C@@]2(O)C(O)=C3C(=O)c4c(O)ccc(CNOCC(F)(F)F)c4C[C@H]3C[C@@H]12 [EA] | > 75 | > 75 | 4 to 8 (≈ 7.39 to 14.8 µM) | > 8 | 4 to 8 (≈ 7.39 to 14.8 µM) | < 4 | < 4 | < 4 | > 8 |  |  |  |  |  |  |  |  |  | 
CC(=O)c1cccc2c1C[C@H]1C[C@H]3[C@H](N(C)C)C(O)=C(C(N)=O)C(=O)[C@@]3(O)C(O)=C1C2=O [E] | > 75 | > 75 | < 4 | 4 to 8 (≈ 9.08 to 18.2 µM) | > 8 | < 4 | < 4 | < 4 | > 8 |  |  |  |  |  |  |  |  |  | 
CCO/N=C(\C)c1cc(CNCC(C)(C)C)c(O)c2c1C[C@H]1C[C@H]3[C@H](N(C)C)C(O)=C(C(N)=O)C(=O)[C@@]3(O)C(O)=C1C2=O [N] | > 75 | > 75 | < 4 | < 4 | < 4 | < 4 | < 4 | < 4 | 4 to 8 (≈ 6.68 to 13.4 µM) |  |  |  |  |  |  |  |  |  | 
CCNN(CC)Cc1ccc(O)c2c1C[C@H]1C[C@H]3[C@H](N(C)C)C(O)=C(C(N)=O)C(=O)[C@@]3(O)C(O)=C1C2=O [Z, (4S,4aS,5aR,12aS)-7-(N,N″-Diethyl-hydrazinomethyl)-4-dimethylamino-3,10,12,12a-tetrahydroxy-1,11-dioxo-1,4,4a,5,5a,6,11,12a-octahydro-naphthacene-2-carboxylic acid amide] | > 75 | > 75 | < 4 | 4 to 8 (≈ 7.77 to 15.5 µM) | > 8 | < 4 | < 4 | < 4 | 4 to 8 (≈ 7.77 to 15.5 µM) |  |  |  |  |  |  |  |  |  | 
CON(C)Cc1ccc(O)c2c1C[C@H]1C[C@H]3[C@@H](N(C)C)C(O)=C(C(N)=O)C(=O)[C@@]3(O)C(O)=C1C2=O [Y] | > 75 | > 75 | 4 to 8 (≈ 8.2 to 16.4 µM) | > 8 |  | < 4 | < 4 | < 4 | > 8 |  |  |  |  |  |  |  |  |  | > 8
CCO/N=C(\C)c1cc(N)c(O)c2c1C[C@H]1C[C@H]3[C@H](N(C)C)C(O)=C(C(N)=O)C(=O)[C@@]3(O)C(O)=C1C2=O [M] | > 75 | > 75 | < 4 | < 4 | 4 to 8 (≈ 7.77 to 15.5 µM) | < 4 | < 4 | < 4 | 4 to 8 (≈ 7.77 to 15.5 µM) |  |  |  |  |  |  |  |  |  | 
CN(C)[C@@H]1C(O)=C(C(N)=O)C(=O)[C@@]2(O)C(O)=C3C(=O)c4c(O)ccc(CNOC(C)(C)C)c4C[C@H]3C[C@@H]12 [AB] | < 35 | < 35 | < 4 | 4 to 8 (≈ 7.76 to 15.5 µM) | 4 to 8 (≈ 7.76 to 15.5 µM) | < 4 | < 4 | < 4 | > 8 |  |  |  |  |  |  |  |  |  | 
